Measurements as given in paper PMC6556873, “Rapid Covalent-Probe Discovery by Electrophile-Fragment Screening” (Journal of the American Chemical Society, 2019).
Like-named read-outs stand apart in the source and are kept apart here.

Columns and labels:
NUDT7 = molecular target: T1, NUDT7 (Homo sapiens, UniProt P0C024); set-up: Intact protein LC/MS covalent labelling, fragments in pools of five, 200 uM each, 4 °C; details: 24 h, 4 °C, pool of five; 200 µM; covalent
T1 construct: residues 14-235, E. coli, pNIC28-Bsa4, N-terminal His6 tag removed by TEV, construct 26672 Da
T1 sequence (P0C024 14-235): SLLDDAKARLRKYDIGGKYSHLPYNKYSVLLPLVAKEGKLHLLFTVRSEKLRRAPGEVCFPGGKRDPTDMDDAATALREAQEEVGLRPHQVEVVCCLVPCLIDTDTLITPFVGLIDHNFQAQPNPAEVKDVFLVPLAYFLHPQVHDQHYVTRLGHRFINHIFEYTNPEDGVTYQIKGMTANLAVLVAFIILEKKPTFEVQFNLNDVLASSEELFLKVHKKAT

OTUB2 (OTUB2A) = molecular target: T2, OTUB2 (OTUB2A) (Homo sapiens, UniProt Q96DC9); set-up: Intact protein LC/MS covalent labelling, fragments in pools of five, 200 uM each, 4 °C; details: 24 h, 4 °C, pool of five; 200 µM; covalent
T2 construct: full length residues 1-234, E. coli BL21(DE3)-R3, His tag removed by TEV, construct 27312 Da
T2 sequence (Q96DC9 1-234): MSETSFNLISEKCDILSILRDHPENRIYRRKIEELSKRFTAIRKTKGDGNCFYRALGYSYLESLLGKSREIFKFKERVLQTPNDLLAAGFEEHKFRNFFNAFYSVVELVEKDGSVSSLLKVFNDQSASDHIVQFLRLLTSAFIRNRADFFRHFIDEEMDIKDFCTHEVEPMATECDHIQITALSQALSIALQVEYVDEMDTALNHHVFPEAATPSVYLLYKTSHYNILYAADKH

PCAF = molecular target: T3, PCAF (Homo sapiens, UniProt Q92831); set-up: Intact protein LC/MS covalent labelling, fragments in pools of five, 200 uM each, 4 °C; details: 24 h, 4 °C, pool of five; 200 µM; covalent
T3 construct: gene KAT2B
T3 sequence (Q92831 whole entry, the tested form may be a part): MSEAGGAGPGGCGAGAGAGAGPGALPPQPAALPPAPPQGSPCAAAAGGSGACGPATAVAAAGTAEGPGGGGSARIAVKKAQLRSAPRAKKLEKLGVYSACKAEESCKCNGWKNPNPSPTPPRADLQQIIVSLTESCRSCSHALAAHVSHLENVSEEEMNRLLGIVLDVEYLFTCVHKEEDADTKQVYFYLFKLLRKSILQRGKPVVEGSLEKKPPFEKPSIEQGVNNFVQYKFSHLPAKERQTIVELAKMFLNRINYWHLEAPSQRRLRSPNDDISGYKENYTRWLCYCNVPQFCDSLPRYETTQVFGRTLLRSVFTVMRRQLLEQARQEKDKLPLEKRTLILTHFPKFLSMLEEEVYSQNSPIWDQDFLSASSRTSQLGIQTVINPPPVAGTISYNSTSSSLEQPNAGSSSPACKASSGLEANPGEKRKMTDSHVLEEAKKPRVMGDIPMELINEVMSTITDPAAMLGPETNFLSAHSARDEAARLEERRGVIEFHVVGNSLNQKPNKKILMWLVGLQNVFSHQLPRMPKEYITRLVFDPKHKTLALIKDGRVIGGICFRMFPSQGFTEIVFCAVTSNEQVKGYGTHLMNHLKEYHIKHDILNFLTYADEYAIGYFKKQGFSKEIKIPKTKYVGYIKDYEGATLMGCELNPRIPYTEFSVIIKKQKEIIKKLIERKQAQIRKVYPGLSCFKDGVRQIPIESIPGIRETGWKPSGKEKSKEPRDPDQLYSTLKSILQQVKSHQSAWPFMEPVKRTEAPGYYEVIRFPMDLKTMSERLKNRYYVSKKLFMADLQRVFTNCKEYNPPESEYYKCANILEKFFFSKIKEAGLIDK

NNMT (hNNMT) = molecular target: T4, NNMT (hNNMT) (Homo sapiens, UniProt P40261); set-up: Intact protein LC/MS covalent labelling, fragments in pools of five, 200 uM each, 4 °C; details: 24 h, 4 °C, pool of five; 200 µM; covalent
T4 construct: wild type, N-terminal His6 tag kept (no cleavage described), E. coli, construct 31248 Da
T4 sequence (P40261 1-264): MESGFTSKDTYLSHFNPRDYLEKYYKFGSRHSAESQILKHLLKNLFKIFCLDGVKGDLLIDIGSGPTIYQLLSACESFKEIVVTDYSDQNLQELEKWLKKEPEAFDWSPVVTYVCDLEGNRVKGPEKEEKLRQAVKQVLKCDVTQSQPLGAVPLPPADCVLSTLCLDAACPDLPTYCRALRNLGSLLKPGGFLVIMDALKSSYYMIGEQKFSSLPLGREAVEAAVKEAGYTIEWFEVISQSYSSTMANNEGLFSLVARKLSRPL

BSA = molecular target: T5, BSA (Bos taurus, UniProt P02769); set-up: Intact protein LC/MS covalent labelling, fragments in pools of five, 200 uM each, 4 °C; details: 24 h, 4 °C, pool of five; 200 µM; covalent
T5 construct: gene ALB
T5 sequence (P02769 whole entry, the tested form may be a part): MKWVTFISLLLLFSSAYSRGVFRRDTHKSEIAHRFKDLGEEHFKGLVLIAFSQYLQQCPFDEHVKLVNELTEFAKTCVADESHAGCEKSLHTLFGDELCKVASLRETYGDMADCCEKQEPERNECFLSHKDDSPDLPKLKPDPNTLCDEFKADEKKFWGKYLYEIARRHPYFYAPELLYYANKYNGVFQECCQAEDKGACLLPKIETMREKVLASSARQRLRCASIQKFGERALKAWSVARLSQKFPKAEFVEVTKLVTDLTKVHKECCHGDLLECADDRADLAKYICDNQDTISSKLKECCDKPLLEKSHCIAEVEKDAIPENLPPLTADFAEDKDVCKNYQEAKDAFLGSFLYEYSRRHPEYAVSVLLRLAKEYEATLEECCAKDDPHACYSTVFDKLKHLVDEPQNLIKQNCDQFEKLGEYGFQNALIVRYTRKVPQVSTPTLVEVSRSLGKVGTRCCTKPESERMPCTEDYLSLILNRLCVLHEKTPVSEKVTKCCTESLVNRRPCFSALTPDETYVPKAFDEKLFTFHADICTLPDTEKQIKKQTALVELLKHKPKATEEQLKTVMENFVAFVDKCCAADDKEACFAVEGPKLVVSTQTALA

in vitro [1] = assay: in vitro; set-up: species or system HB2, CCD841; details: human, hek293 cells
in vitro [2] = assay: in vitro; set-up: species or system CCD841, HEK293; details: human, hb2 cells, read-out: HB-2 Cells Viability (%)
in vitro [3] = assay: in vitro; set-up: species or system HB2, HEK293; details: human, ccd841 cells

Compound	NUDT7 (NUDT7)	OTUB2 (OTUB2 (OTUB2A))	PCAF (PCAF)	NNMT (NNMT (hNNMT))	BSA (BSA)	viability at 48 h, 10 µM (in vitro [1])	viability at 48 h, 10 µM (in vitro [2])	viability at 48 h, 10 µM (in vitro [3])
Cc1ccc(CNC(=O)CCl)cc1 [PCM-0102660]	0	0.63	0	0	0	93.6%	87.4%	80.3%
O=C(CCl)Nc1ccc2c(c1)CCC2 [PCM-0102662]	0.12	0.14	0	0.22	0	4.7%	16.3%	56.2%
CC1CCC2(CC1)NC(=O)N(NC(=O)CCl)C2=O (stereo not drawn) [PCM-0102666]	0	0	0	0	0	99.9%	97.3%	79.9%
C=CC(=O)N1CCC2C(CCCN2Cc2ccccc2)C1 (stereo not drawn) [PCM-0102673]	0	0	0	0	0	85%	102%	116%
C=CC(=O)N1CCCCC1c1cnn(C)c1 (stereo not drawn) [PCM-0102675]	0.1	0	0	0	0	88.5%	95.7%	103%
C=CC(=O)N(C)Cc1c(C)nc2sc(C)cn12 [PCM-0102679]	0.06	0	0	0.32	0	83.2%	103%	108%
C=CC(=O)N1CCCC1C(=O)Nc1nc2ccccc2s1 (stereo not drawn) [PCM-0102681]	0	0	0	0	0	79.7%	95.7%	115%
C=CC(=O)N1CCN(C(=O)CN2C(=O)CCC2=O)CC1 [PCM-0102684]	0.08	0	0	0	0	105%	99.9%	103%
C=CC(=O)N1CC=C(C(F)(F)F)CC1 [PCM-0102685]	0	0	0	0.17	0	98%	103%	105%
C=CC(=O)Nc1cc(CC(C)(C)C)nn1C [PCM-0102686]	0.15	0	0	0.12	0	75.3%	102%	144%
C=CC(=O)N1CC(c2ccccc2)C2COCCC21 (stereo not drawn) [PCM-0102687]	0	0	0	0	0	114%	103%	105%
O=C(CCl)NC(=O)NC1CCCCC1 [PCM-0102692]	0	0	0	0.76	0	62.3%	48.7%	70.7%
Cc1ccccc1CN(C)C(=O)CCl [PCM-0102707]	0.13	0	0	0.13	0	11.6%	7.9%	57%
Cc1ccc(Cn2ccsc2=NC(=O)CCl)cc1 [PCM-0102708]	0.09	0	0	0	0	7.9%	36%	3%
CN(CCC#N)C(=O)CCl [PCM-0102712]	0	0	0	0.32	0	80.3%	89.4%	79.6%
CN(CC1CC1)C(=O)CCl [PCM-0102714]	0	0	0	0	0	88.3%	97%	84.8%
C=CC(=O)N1CC(=O)NC2CCCCC21 (stereo not drawn) [PCM-0102717]	0	0	0	0	0	112%	100%	105%
C=CC(=O)N1Cc2ccc(S(=O)(=O)N(C)C)cc2C1 [PCM-0102718]	0	0	0	0	0.3	73.6%	97.4%	99.7%
C=CC(=O)NCC1(O)CCCC(C(F)(F)F)C1 (stereo not drawn) [PCM-0102720]	0	0.08	0	0	0	106%	93.2%	107%
C=CC(=O)N1CCCC(Oc2ncccc2F)C1 (stereo not drawn) [PCM-0102725]	0	0.07	0	0.13	0	80.3%	108%	109%
C=CC(=O)N1CC(OC(=O)NC(C)C)C1 [PCM-0102728]	0	0.18	0	0	0	110%	99.7%	108%
C=CC(=O)N1CCCn2c(cc3ccccc32)C1 [PCM-0102730]	0	0.18	0	0	0	85%	104%	92.2%
C=CC(=O)NC1CCN(c2ccccc2C(F)(F)F)C1 (stereo not drawn) [PCM-0102731]	0	0	0	0	0	69.7%	100%	104%
C=CC(=O)N1CCc2ccccc21 [PCM-0102732]	0	0	0	0.22	0	72.5%	93.4%	105%
CC(C)(C)c1nnc(NC(=O)CCl)s1 [PCM-0102736]	0	0	0	0.13	0	81.5%	80.1%	67.5%
Cc1cccc(C(=O)NNC(=O)CCl)c1 [PCM-0102737]	0	0.54	0	0	0	83.7%	82.1%	80%
CN(CC(=O)N1CCOCC1)C(=O)CCl [PCM-0102743]	0	0	0	0	0	97.6%	101%	99%
